Reference: ChEMBL document CHEMBL4387742, “Naturally occurring biflavonoids with amyloid β aggregation inhibitory activity for development of anti-Alzheimer agents” (Bioorg Med Chem Lett, 2019)

These compounds were tested against T1, Amyloid-beta precursor protein (Homo sapiens, UniProt P05067) (assay: Inhibition of amyloid beta (1 to 42) (unknown origin) assessed as reduction in aggregation at 50 uM by ThT fluorescence assay).
T1 sequence (P05067 whole entry): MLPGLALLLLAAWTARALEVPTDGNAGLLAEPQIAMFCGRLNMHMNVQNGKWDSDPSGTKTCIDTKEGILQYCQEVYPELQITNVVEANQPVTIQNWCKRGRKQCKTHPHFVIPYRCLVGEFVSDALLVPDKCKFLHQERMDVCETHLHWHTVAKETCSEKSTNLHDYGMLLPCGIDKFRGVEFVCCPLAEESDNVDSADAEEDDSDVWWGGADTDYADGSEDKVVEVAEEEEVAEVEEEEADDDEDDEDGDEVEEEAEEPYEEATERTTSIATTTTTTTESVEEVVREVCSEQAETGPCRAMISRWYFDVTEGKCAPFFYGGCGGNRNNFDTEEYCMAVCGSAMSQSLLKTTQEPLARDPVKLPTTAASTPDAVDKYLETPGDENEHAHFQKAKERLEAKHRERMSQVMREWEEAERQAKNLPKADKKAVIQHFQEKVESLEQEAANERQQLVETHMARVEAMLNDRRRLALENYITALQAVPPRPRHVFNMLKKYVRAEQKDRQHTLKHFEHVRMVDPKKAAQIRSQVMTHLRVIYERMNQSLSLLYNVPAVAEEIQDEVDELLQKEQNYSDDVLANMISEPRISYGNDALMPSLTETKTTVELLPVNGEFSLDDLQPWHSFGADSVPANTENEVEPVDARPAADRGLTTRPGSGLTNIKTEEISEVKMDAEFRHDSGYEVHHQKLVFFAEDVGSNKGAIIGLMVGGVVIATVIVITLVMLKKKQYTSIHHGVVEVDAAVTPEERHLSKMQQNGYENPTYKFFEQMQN
`COc1ccc(-c2cc(=O)c3c(O)cc(O)c(-c4cc(-c5cc(=O)c6c(O)cc(OC)cc6o5)ccc4OC)c3o2)cc1` [SCIADOPITISIN] showed an inhibition of 44%.

Each compound was assayed against T1, Amyloid-beta precursor protein (assay: Inhibition of human amyloid beta (1 to 40) assessed as reduction in aggregation measured after 24 hrs by ThT fluorescence assay).
In the case of `COc1ccc(-c2cc(=O)c3c(O)cc(OC)c(-c4c(OC)cc(O)c5c(=O)cc(-c6ccc(OC)cc6)oc45)c3o2)cc1`, the IC50 is reported as > 50 µM.
For `COc1ccc(-c2cc(=O)c3c(O)cc(OC)c(-c4cc(-c5cc(=O)c6c(O)cc(O)cc6o5)ccc4OC)c3o2)cc1` [KAYAFLAVONE], the IC50 was > 50 µM.
`COc1ccc(-c2cc(=O)c3c(O)cc(O)cc3o2)cc1-c1c(O)cc(O)c2c(=O)cc(-c3ccc(O)cc3)oc12` [BILOBETIN] was tested, and the IC50 was 4.7 µM.
In the case of `COc1cc(O)c2c(=O)cc(-c3ccc(OC)c(-c4c(OC)cc(O)c5c(=O)cc(-c6ccc(O)cc6)oc45)c3)oc2c1`, the IC50 is reported as > 50 µM.
With `COc1ccc(-c2cc(=O)c3c(O)cc(OC)c(-c4c(OC)cc(O)c5c(=O)cc(-c6ccc(O)cc6)oc45)c3o2)cc1` the IC50 was 45.6 µM.
`COc1ccc(-c2cc(=O)c3c(O)cc(O)cc3o2)cc1-c1c(O)cc2oc(-c3ccc(O)cc3)cc(=O)c2c1O` was tested, and the IC50 was > 50 µM.
For `COc1ccc(-c2cc(=O)c3c(O)c(Oc4ccc(-c5cc(=O)c6c(O)cc(O)cc6o5)cc4)c(O)cc3o2)cc1`, the IC50 was > 50 µM.
For `COc1ccc(-c2cc(=O)c3c(O)c(Oc4ccc(-c5cc(=O)c6c(O)cc(O)cc6o5)cc4)c(OC)cc3o2)cc1`, the IC50 was > 50 µM.
Compound `COc1cc(O)c2c(=O)cc(-c3ccc(O)cc3)oc2c1-c1c(OC)cc(O)c2c(=O)cc(-c3ccc(O)cc3)oc12` has an IC50 of 17.3 µM.
In the case of `COc1cc2oc(-c3ccc(O)cc3)cc(=O)c2c(O)c1Oc1ccc(-c2cc(=O)c3c(O)cc(O)cc3o2)cc1`, the IC50 is reported as > 50 µM.
For `COc1cc2oc(-c3ccc(O)cc3)cc(=O)c2c(O)c1-c1c(O)cc(O)c2c(=O)cc(-c3ccc(O)cc3)oc12`, the IC50 was 13 µM.
`COc1ccc(-c2cc(=O)c3c(O)cc(O)c(-c4c(OC)cc5oc(-c6ccc(O)cc6)cc(=O)c5c4O)c3o2)cc1` gave an IC50 of 15.9 µM.
In the case of `COc1ccc(-c2cc(=O)c3c(O)cc(O)cc3o2)cc1-c1c(OC)cc(O)c2c(=O)cc(-c3ccc(O)cc3)oc12`, the IC50 is reported as > 50 µM.
`COc1cc(O)c2c(=O)cc(-c3ccc(O)c(-c4c(O)cc(O)c5c(=O)cc(-c6ccc(O)cc6)oc45)c3)oc2c1` [SEQUOIAFLAVONE] gave an IC50 of 4.9 µM.
`COc1cc(O)c2c(=O)cc(-c3ccc(OC)c(-c4c(O)cc(O)c5c(=O)cc(-c6ccc(O)cc6)oc45)c3)oc2c1` [GINKGETIN] gave an IC50 of 13.2 µM.
With `O=c1cc(-c2ccc(O)cc2)oc2cc(O)cc(O)c12` [APIGENIN] the IC50 was > 50 µM.
`O=c1cc(-c2ccc(Oc3c(O)cc4oc(-c5ccc(O)cc5)cc(=O)c4c3O)cc2)oc2cc(O)cc(O)c12` [HINOKIFLAVONE] showed an IC50 of 9.5 µM.
For `COc1ccc(-c2cc(=O)c3c(O)cc(OC)c(-c4cc(-c5cc(=O)c6c(O)cc(OC)cc6o5)ccc4O)c3o2)cc1` [HEVEAFLAVONE], the IC50 was > 50 µM.
`COc1cc(O)c2c(=O)cc(-c3ccc(O)cc3)oc2c1-c1cc(-c2cc(=O)c3c(O)cc(O)cc3o2)ccc1O` [SOTETSUFLAVONE] was tested, and the IC50 was > 50 µM.
For `COc1ccc(-c2cc(=O)c3c(O)cc(OC)c(-c4c(OC)cc5oc(-c6ccc(O)cc6)cc(=O)c5c4O)c3o2)cc1`, the IC50 was > 50 µM.
`COc1ccc(-c2cc(=O)c3c(O)cc(O)c(-c4cc(-c5cc(=O)c6c(O)cc(OC)cc6o5)ccc4OC)c3o2)cc1` [SCIADOPITISIN] was tested, and the IC50 was > 50 µM.
`COc1ccc(-c2cc(=O)c3c(O)cc(O)c(-c4cc(-c5cc(=O)c6c(O)cc(O)cc6o5)ccc4O)c3o2)cc1` [PODOCARPUSFLAVONE A] showed an IC50 of 4.9 µM.
Work on `COc1ccc(-c2cc(=O)c3c(O)cc(OC)c(-c4cc(-c5cc(=O)c6c(O)cc(O)cc6o5)ccc4O)c3o2)cc1` [7'',4'''-dimethylamentoflavone] yielded an IC50 of 20.1 µM.
With `COc1cc2oc(-c3ccc(O)cc3)cc(=O)c2c(O)c1-c1c(OC)cc(O)c2c(=O)cc(-c3ccc(O)cc3)oc12` the IC50 was 32.8 µM.
`COc1cc2oc(-c3ccc(O)cc3)cc(=O)c2c(O)c1-c1cc(-c2cc(=O)c3c(O)cc(O)cc3o2)ccc1O` gave an IC50 of 21.3 µM.
With `COc1ccc(-c2cc(=O)c3c(O)cc(O)c(-c4cc(-c5cc(=O)c6c(O)cc(O)cc6o5)ccc4OC)c3o2)cc1` [ISOGINKGETIN] the IC50 was 10.1 µM.
With `O=c1cc(-c2ccc(O)c(-c3c(O)cc(O)c4c(=O)cc(-c5ccc(O)cc5)oc34)c2)oc2cc(O)cc(O)c12` [AMENTOFLAVONE] the IC50 was 4.8 µM.
With `COc1ccc(-c2cc(=O)c3c(O)cc(OC)c(-c4cc(-c5cc(=O)c6c(O)cc(OC)cc6o5)ccc4OC)c3o2)cc1` the IC50 was > 50 µM.
